From patent US20240425512A1, “NITROGEN-CONTAINING HETEROCYCLIC COMPOUND, PHARMACEUTICAL COMPOSITION THEREOF AND APPLICATION THEREOF” (280 Bio, Inc., priority 2023, published 2024)
Read-outs that look alike come from different tables or passages of the source.

What was measured:
Format in all cases: cell-based
[1] = tested on: Capan-2 pancreatic cancer cell with KRAS G12V mutation; test: Proliferation inhibition on RAS cell lines measured by CTG, Capan-2; details: Homo sapiens, 144 h; Table 2; Capan-2 cells, incubated for 6 days, CellTiter Glo; read-out: IC50 (Capan-2^i)
Description: (§1) NCI-H358 is a human non-small cell lung cancer cell line with KRAS G12C mutation; AGS is a gastric cancer cell line with KRAS G12D mutation; SW620 is a colon cancer cell with KRAS G12V mutation; NCI-H460 is a non-small cell lung cancer cell with KRAS Q61H mutation; MKN1 is a wild-type gastric cancer cell with KRAS-amplified; LS513 is a colon cancer cell with KRAS G12D mutation; LoVo is a colon cancer cell with KRAS G13D mutation; NCI-H441 is a lung cancer cell with KRAS G12V mutation, and Capan-2 is a pancreatic cancer cell with KRAS G12V mutation.
(§2) The proliferation inhibitory effect of the compounds on various mutations was evaluated by determining the proliferation inhibitory activity of the compounds on these cell lines.
(§3) The assay was conducted on either 384-well plates or 96-well plates. The procedures are as follows:
(§4) The cell suspensions were added to 384- or 96-well plates (384-well plate: 50 μL; 96-well plate: 100 μL) except for peripheral wells. The plates were placed in a carbon dioxide incubator overnight. NCI-H358, AGS, NCI-H460, MKN-1, LS513, LoVo, and NCI-H441 were placed in a 5%, 370 carbon dioxide incubator overnight, and SW620 was placed in a 0%, 370 carbon dioxide incubator overnight. The HPD300 micro-dosing instrument was used to add the corresponding concentration of compound to each well (9-10 concentration gradients of compound were obtained by 3-fold dilution). Cell plates were incubated in a carbon dioxide incubator for 5-6 days. NCI-H358, AGS, NCI-H460 and MKN-1 were incubated at 5%, 37° incubator and SW620 was incubated at 0%, 370 incubator. On the day of plate measurement, the 384- or 96-well plates were first equilibrated at room temperature for 10-30 min, then CellTiter Glo reagent (384-well plate: 25 μL; 96-well plate: 100 μL) was added to the 384- or 96-well plate, shaken for 10 min away from light, and incubated for 10 min. The plates were placed into Victor NIVO or ENVIDION reader plates, and XLFit was utilized to plot the pharmacodynamic inhibition curve and calculate the IC50 value. “IC50>10 μM” is denoted by “*”, “10 μM≥IC50≥1 μM” is denoted by “**”, and “1 μM≥IC50>100 nM” is denoted by “***”, “IC50<100 nM” is denoted by “****”

[2] = tested on: LS513 colon cancer cell with KRAS G12D mutation; test: Proliferation inhibition on RAS cell lines measured by CTG, LS513; details: Homo sapiens, LS-513, 144 h, LS513 cells, incubated for 6 days, CellTiter Glo
Description: as §1, §2, §3, §4

[3] = tested on: SW620 colon cancer cell with KRAS G12V mutation; test: Proliferation inhibition on RAS cell lines measured by CTG, SW620; details: Homo sapiens, SW-620, 144 h; Table 2; SW620 cells, incubated for 6 days, CellTiter Glo; read-out: IC50 (SW620^c)
Description: as §1, §2, §3, §4

[4] = tested on: GP2D cells; test: Proliferation inhibition on RAS cell lines measured by CTG, GP2D; details: 144 h, Table 3, incubated for 6 days, CellTiter Glo, read-out: IC50 (GP2D^l)
Protocol: as §2, §3, §4

[5] = Table 2, read-out: IC50 (LS513^f)
[6] = Table 3, read-out: IC50 (LS513^k)

CCc1c(F)ccc2cc(O)cc(-c3ccc4c(N5CCCCCN5)nc(OC[C@@]56CCCN5C[C@H](F)C6)nc4c3)c12 [Compound 27]
IC50 [1]: 1000 to 10000 nM
IC50 [2, 5]: 100 to 1000 nM

CCc1c(F)ccc2cc(O)cc(-c3ncc4c(N5CCCCCN5)nc(OCC5(CN(C)C)CC5)nc4c3F)c12 [Compound 28]
IC50 [1]: 100 to 1000 nM
IC50 [2, 5]: < 100 nM

C#Cc1c(F)ccc2cc(O)cc(-c3ncc4c(N5CCCCCN5)nc(OCC5(CN6CCOCC6)CC5)nc4c3F)c12 [Compound 29]
IC50 [1]: < 100 nM
IC50 [2, 5]: < 100 nM

C#Cc1c(F)ccc2cc(N)cc(-c3ncc4c(N5CCCCCN5)nc(OC[C@@]56CCCN5C[C@H](F)C6)nc4c3F)c12 [Compound 30]
IC50 [2, 5]: < 100 nM
IC50 [3]: < 100 nM

C#Cc1c(F)ccc2cc(O)cc(-c3nc(OC)c4c(N5CCCCCN5)nc(OC[C@@]56CCCN5C[C@H](F)C6)nc4c3F)c12 [Compound 33]
IC50 [1]: 100 to 1000 nM
IC50 [2, 5]: < 100 nM

Oc1cc(-c2ncc3c(N4CCCCCN4)nc(OC[C@@]45CCCN4C[C@H](F)C5)nc3c2F)c2c(Cl)cccc2c1 [Compound 35]
IC50 [1]: 100 to 1000 nM
IC50 [2, 5]: < 100 nM

C#Cc1cccc2cc(O)cc(-c3ncc4c(N5CCCCCN5)nc(OC[C@@]56CCCN5C[C@H](F)C6)nc4c3F)c12 [Compound 36]
IC50 [1]: < 100 nM
IC50 [2, 5]: < 100 nM

C#Cc1c(F)ccc2cc(O)cc(-c3ncc4c(N5CCCCCN5)nc(OCC56CCCN5CC(F)(F)C6)nc4c3F)c12 (stereo not drawn) [Compound 37]
IC50 [2, 5]: < 100 nM
IC50 [3]: < 100 nM

C#Cc1c(F)ccc2cc(O)cc(-c3ncc4c(N5CCCC(O)CN5)nc(OC[C@@]56CCCN5C[C@H](F)C6)nc4c3F)c12 (stereo partly drawn) [Compound 38]
IC50 [3]: 1000 to 10000 nM

C#Cc1c(F)ccc2cc(O)cc(-c3ncc4c(N5CC(O)CCCN5)nc(OC[C@@]56CCCN5C[C@H](F)C6)nc4c3F)c12 (stereo partly drawn) [Compound 39]
IC50 [3]: 1000 to 10000 nM

C#Cc1c(F)ccc2cc(O)cc(-c3c(Cl)cc4c(N5CCCCCN5)nc(OC[C@@]56CCCN5C[C@H](F)C6)nc4c3F)c12 [Compound 41]
IC50 [3]: 1000 to 10000 nM

C#Cc1c(F)ccc2cc(O)cc(-c3c(F)cc4c(N5CCCCCN5)nc(OC[C@@]56CCCN5C[C@H](F)C6)nc4c3F)c12 [Compound 49]
IC50 [2, 5]: < 100 nM
IC50 [3]: < 100 nM

C/C=C\c1c(Cl)cc2[nH]ncc2c1-c1c(F)cc2c(N3CCCCCN3)nc(OC[C@@]34CCCN3C[C@H](F)C4)nc2c1F [Compound 50]
IC50 [2, 5]: 100 to 1000 nM
IC50 [3]: 100 to 1000 nM

C#Cc1c(F)ccc2cc(OC(=O)N(C)C[C@@H]3CCCN3)cc(-c3ncc4c(N5CCCCCN5)nc(OC[C@@]56CCCN5C[C@H](F)C6)nc4c3F)c12 [Compound 151]
IC50 [2, 6]: < 100 nM
IC50 [4]: < 100 nM

C#Cc1c(F)ccc2cc(OC(=O)N(C)CCNC)cc(-c3ncc4c(N5CCCCCN5)nc(OC[C@@]56CCCN5C[C@H](F)C6)nc4c3F)c12 [Compound 153]
IC50 [2, 6]: < 100 nM
IC50 [4]: < 100 nM
